Source: patent publication US10238642B2, “Methods for treating neurogenic orthostatic hypotension” (Theravance Biopharma R&D IP, LLC, priority 2016, dated 2019)

Key:
human recombinant NET = molecular target: T1, human recombinant NET (Homo sapiens, UniProt P23975); assay: [3H]-NE neurotransmitter uptake inhibition in HEK293-hNET cells; assay type: cell-based; settings: human transporters
T1 construct: expressed in transfected cells; host or cells: HEK293
Source text: (§1) The in vitro pharmacology of 4-[2-(2,4,6-trifluorophenoxymethyl)phenyl]-piperidine at human recombinant and rat native monoamine transporters was characterized as described in Smith et al., Inter. J. Neuropsychopharmcol. (2015) 1-11; and Tsuruda et al., J. Pharmacol. Toxicol. Meth. (2010) 61:192-204. See also, e.g., U.S. Pat. No. 8,304,432 B2 and U.S. Pat. No. 8,304,433 B2. Radioligands were sourced commercially (Perkin Elmer LifeSciences or GE Healthcare Life Sciences).
(§2) Briefly, membranes prepared from HEK293 (Human Embryonic Kidney 293) or CHO-K1 (Chinese Hamster Ovary-K1) cells stably transfected with human recombinant SERT (HEK293-hSERT), NET (HEK293-hNET), or DAT (CHO-KT-hDAT) were incubated for 1 hr at 22° C. in the absence, or presence, of 4-[2-(2,4,6-trifluorophenoxymethyl)phenyl]piperidine and [^3H]-citalopram (1.0 nM) for SERT, [^3H]-nisoxetine (2.0 nM) for NET, and [^3H]-WIN35428 (3.0 nM) for DAT in 50 mM Tris-HCl, 120 mM NaCl, 5 mM KCl, 0.025% BSA, 100 μM ascorbic acid, pH 7.4. Rat cortical membrane preparations were incubated with [^3H]-citalopram (2.0 nM) for SERT or [3H]-nisoxetine (4.0 nM) for NET for 1 hr at 22° C. […] Binding and uptake assays were terminated by rapid filtration and radioactivity determined by liquid scintillation spectroscopy.

rat native NET [1] = assay: [3H]-NE uptake inhibition in rat cortical synaptosomes; assay type: biochemical
Source text: as §1, §2

rat native NET [2] = molecular target: T2, rat native NET (Rattus norvegicus, UniProt Q9WTR4); assay: [3H]-nisoxetine radioligand binding, rat cortical membranes; settings: mean (95% confidence intervals), read-out: Transporter Binding: pKi, NET (converted)
T2 construct: other: Rat cortical membranes; mean (95% confidence intervals)
Source text: as §1, §2

SERT = molecular target: T3, SERT (Rattus norvegicus, UniProt P31652); assay: Ex vivo transporter occupancy in rat spinal cord (PK/PD model), SERT
T3 construct: Spinal cords were dissected for ex vivo transporter occupancy and PK assessments from the same animals; from tissue; host or cells: lumbar spinal cord of orally dosed male Sprague Dawley rats
Experimental: (§3) Adult male Sprague Dawley rats (Charles River) were housed under controlled laboratory conditions (temperature at 21±1° C.) on a 12:12 hour light-dark cycle. Animals were given free access to food and water upon arrival to the facility and animals were acclimatized to their holding room for at least 48 hours. Animals were fasted but allowed free access to water for 15-18 hours prior to dosing.
(§4) Rats (n=6/timepoint/dose level) received a single oral dose of 4-[2-(2,4,6-trifluorophenoxymethyl)phenyl]piperidine (0.3, 1, 5, 10, 30, and 60 mg/kg) and were euthanized by decapitation at specified time points (0.5, 2, 4, 6, and 8 hr for 5 mg/kg dose level; 2 hr for 0.3, 1, 10, 30, and 60 mg/kg dose levels) post-administration. Spinal cords were dissected for ex vivo transporter occupancy and PK assessments from the same animals. The spinal cord was harvested by hydraulic extrusion using phosphate-buffered saline, and the lumbar segment dissected and frozen on dry ice. The remaining spinal cord segments were collected and homogenized in water (25% w/w) for PK analysis. All samples were stored at −80° C. until analysis.
A kinetic radioligand binding assay was used to determine NET and SERT occupancy in rat spinal cord, as described previously in Bourdet et al., J. Pharm. Exp. Ther. (2012) 341:137-145. […] One- and two-compartment PK models with first-order absorption and elimination were evaluated. […]

NET = NET (Rattus norvegicus, UniProt Q9WTR4); assay: Ex vivo transporter occupancy in rat spinal cord (PK/PD model), NET; settings: estimate (% CV)
Experimental: as §3, §4
(§5) A kinetic radioligand binding assay was used to determine NET and SERT occupancy in rat spinal cord, as described previously in Bourdet et al., J. Pharm. Exp. Ther. (2012) 341:137-145. PK/PD parameters were estimated by a compartmental modeling approach (WinNonlin Version 5.0.1, Pharsight Corporation). One- and two-compartment PK models with first-order absorption and elimination were evaluated. The one-compartment model was selected. The pharmacodynamics model was an effect compartment Emax model linked directly to the central PK compartment (WinNonlin PK Model 3, PD Model 101). Selection of models was based upon best fit in terms of visual inspection, Akaike Information Criteria, and weighted residual sum of squares using the Gauss-Newton minimization method.

[3] = Rat oral pharmacokinetics, one-compartment model; assay type: in vivo; settings: estimate (% CV)
Experimental: as §3, §4, §5

[4] = Plasma protein binding, rat; assay type: in vitro ADME
[5] = tested on: tyramine pressor response; assay: Cardiovascular model in anesthetized rat: inhibition of tyramine pressor response; assay type: in vivo; settings: iv, read-out: estimated potency for inhibition of tyramine-induced increase in SBP (Tyr EC50)
CYP1A2 = molecular target: T4, CYP1A2 (Homo sapiens, UniProt P05177); settings: cited from earlier work
T4 sequence (P05177 1-516): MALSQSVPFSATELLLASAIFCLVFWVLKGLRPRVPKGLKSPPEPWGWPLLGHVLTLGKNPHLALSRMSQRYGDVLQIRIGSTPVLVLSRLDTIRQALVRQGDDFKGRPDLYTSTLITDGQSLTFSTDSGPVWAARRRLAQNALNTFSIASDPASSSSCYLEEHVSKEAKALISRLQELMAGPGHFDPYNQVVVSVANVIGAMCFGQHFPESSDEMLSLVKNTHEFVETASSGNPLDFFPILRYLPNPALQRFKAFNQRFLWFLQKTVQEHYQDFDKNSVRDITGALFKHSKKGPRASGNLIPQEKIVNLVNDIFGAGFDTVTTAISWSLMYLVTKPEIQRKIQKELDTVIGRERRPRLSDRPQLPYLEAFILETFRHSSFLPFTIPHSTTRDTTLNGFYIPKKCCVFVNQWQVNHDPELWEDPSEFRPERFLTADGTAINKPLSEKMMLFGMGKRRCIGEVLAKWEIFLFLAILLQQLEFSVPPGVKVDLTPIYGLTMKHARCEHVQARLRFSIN

Sequence of NET (Q9WTR4 1-597): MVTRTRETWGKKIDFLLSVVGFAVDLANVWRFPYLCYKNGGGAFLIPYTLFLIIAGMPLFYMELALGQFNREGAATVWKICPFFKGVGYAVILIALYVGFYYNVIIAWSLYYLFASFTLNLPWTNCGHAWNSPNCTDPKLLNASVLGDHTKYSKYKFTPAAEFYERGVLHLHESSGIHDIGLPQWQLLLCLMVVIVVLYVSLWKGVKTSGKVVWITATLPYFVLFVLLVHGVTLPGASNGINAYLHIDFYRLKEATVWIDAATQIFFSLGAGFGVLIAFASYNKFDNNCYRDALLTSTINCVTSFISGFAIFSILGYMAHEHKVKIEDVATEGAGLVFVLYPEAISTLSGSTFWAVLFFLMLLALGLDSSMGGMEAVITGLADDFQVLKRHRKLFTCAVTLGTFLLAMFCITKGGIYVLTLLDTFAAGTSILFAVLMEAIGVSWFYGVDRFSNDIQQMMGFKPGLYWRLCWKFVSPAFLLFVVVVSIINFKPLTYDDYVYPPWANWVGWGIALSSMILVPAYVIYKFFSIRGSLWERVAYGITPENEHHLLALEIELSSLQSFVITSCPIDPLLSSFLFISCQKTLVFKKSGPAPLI
T3 sequence (P31652 whole entry): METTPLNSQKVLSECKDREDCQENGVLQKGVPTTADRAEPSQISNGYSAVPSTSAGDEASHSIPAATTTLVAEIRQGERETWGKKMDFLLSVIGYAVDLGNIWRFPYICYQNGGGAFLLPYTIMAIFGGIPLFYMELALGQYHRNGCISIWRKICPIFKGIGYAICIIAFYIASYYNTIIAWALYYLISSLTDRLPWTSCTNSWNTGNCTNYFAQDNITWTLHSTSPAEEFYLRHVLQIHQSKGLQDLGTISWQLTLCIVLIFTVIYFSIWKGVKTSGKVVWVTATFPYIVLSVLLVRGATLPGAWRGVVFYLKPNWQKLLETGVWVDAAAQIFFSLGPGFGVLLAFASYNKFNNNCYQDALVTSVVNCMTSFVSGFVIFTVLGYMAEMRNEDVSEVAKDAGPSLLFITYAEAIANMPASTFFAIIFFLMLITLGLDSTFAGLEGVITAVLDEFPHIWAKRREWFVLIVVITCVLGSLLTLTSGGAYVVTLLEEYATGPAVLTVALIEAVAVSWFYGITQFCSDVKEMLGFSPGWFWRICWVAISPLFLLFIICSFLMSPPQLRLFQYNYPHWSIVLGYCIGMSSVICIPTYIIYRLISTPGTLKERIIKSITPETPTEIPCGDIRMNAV
T2 sequence (Q9WTR4 1-597): as the sequence (Q9WTR4 1-597) above
T1 sequence (P23975 whole entry): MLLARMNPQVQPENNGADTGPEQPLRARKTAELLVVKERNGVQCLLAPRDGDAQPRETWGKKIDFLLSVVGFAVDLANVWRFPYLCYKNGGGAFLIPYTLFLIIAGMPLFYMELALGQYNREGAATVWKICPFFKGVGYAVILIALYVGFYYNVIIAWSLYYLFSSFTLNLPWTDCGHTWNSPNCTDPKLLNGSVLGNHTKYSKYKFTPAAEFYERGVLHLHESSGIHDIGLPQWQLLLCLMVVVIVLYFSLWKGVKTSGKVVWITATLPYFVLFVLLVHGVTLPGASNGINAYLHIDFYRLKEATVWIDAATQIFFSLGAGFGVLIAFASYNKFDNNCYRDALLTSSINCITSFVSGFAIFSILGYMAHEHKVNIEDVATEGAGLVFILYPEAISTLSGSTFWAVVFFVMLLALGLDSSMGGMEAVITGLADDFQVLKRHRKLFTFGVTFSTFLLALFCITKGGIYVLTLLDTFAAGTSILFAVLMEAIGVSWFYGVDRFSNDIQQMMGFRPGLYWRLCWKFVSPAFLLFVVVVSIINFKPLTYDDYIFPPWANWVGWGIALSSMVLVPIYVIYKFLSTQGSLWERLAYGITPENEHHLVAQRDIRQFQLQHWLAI

## Fc1cc(F)c(OCc2ccccc2C2CCNCC2)c(F)c1 [4-[2-(2,4,6-trifluorophenoxymethyl)phenyl]piperidine]
Human recombinant NET
  higher potency for inhibition of NET over SERT: 4 fold
Rat native NET [1]
  apparent functional selectivity for NET over SERT: 10 fold
Rat native NET [2]
  Ki: 0.002 µM
SERT; projected from rat, accounting for species differences in plasma protein binding
  EC50: 0.0744 µM
SERT; rat, estimate (% CV)
  keo (first-order equilibration rate constant), SERT: 11.0 (86) hr^−1
NET; rat spinal cord, single oral dose
  Emax (% occupancy), NET: 92.0 (19) % occupancy
NET; rat spinal cord
  EC50: 0.0364 µM
NET; rat
  keo (first-order equilibration rate constant), NET: 1.78 (57) hr^−1
[3]
  V/F (volume of the central compartment divided by oral bioavailability): 54.8 (66) L/kg
  k01 (first-order absorption rate constant): 0.777 (108) hr^−1
  k10 (elimination rate constant from the central compartment): 0.319 (81) hr^−1
[4]
  fraction unbound: 0.098
[5]
  EC50: 0.00086 µM
CYP1A2
  reduction of metabolism by chemical inhibition of CYP1A2: 25%
